Results on two molecules are retold here after publication PMC7311950, “Potent Tetrahydroquinolone Eliminates Apicomplexan Parasites” (Frontiers in Cellular and Infection Microbiology, 2020).

What is called pIC50 is the IC50 on a negative log10 scale, so that one unit is a factor of ten. For orientation: IC90 means the concentration needed for an effect of 90%. Low values mean an effect from little substance, high ones a need for much substance. In general, solubility refers to how much of the substance goes into solution per volume. A lower solubility goes with little dissolved substance. What is called half-life is how long it takes for the measured level to halve.

Data set [1] concerns T. gondii EGS strain bradyzoites. The data set can be described thus: In vitro challenge assay for EGS strain bradyzoites. In kind it is cell-based, Toxoplasma gondii. As to conditions: for number of true cysts and small organisms: EGS strain, at 1 and 10 μM, immunofluorescence microscopy; for pIC50: EGS strain in HFF, Figure 1A, read-out: Brady IC50. As to the method: HFF cells were grown in IMDM on removable, sterile glass cover slips in the bottom of a clear, flat-bottomed 24-well plate. Cultures were infected with 3 × 10^4 EGS strain parasites per well, in 0.5 mL media. The plate was returned to incubator at 37°C overnight. The following day, the media was removed. Colorless IMDM and compounds were added to make various concentrations of the drug. Total volume was 0.5 mL. Two wells had media only, as a control. Plates were returned to the 37°C incubator for 72 h, checked once each 24 h. If tachyzoites were visible in the control before 72 h, cells were fixed and stained. Cells were fixed using 4% paraformaldehyde and stained with Fluorescein-labeled Dolichos Biflorus Agglutinin, DAPI, and antibody to BAG1. Disks were removed, mounted on glass slides, and visualized using microscopy (Nikon Tl7). Slides were scanned using a CRi Panoramic Scan Whole Slide Scanner and viewed using Panoramic Viewer Software. Effects of compounds were quantitated by counting cysts in controls and treated cultures. Dolichos staining delimited structures and single organisms that remained were counted in a representative field of view. This was then multiplied by a factor determined by the total area of the cover slip in order to estimate the number of cysts and organisms in each condition. When the following forms were observed: “true cysts” with a dolichos-staining wall, “pseudocysts” or tight clusters of parasites, and small organisms, if there were fewer than four parasites visible in a cluster, organisms were counted individually (as “small organisms”). The entire scanned coverslip with all fields was also reviewed by 3 observers to confirm consistency.

Data set [2] can be described thus: Kinetic solubility in PBS pH 7.4 (Chem Partners). As to the method:
(§1) The effects of changing R1 as 7-Et, 7-Me, 6-CF3, or 6-Me on activity against RH strain tachyzoites, kinetic solubility, and metabolic stability were compared. Kinetic solubility and metabolic stability in human or murine liver microsomes were measured. The hERG (human Ether-à-go-go-Related) liability was also determined. The hERG gene (KCNH2) encodes a protein Kv11.1, the alpha subunit of a potassium ion channel. This channel conducts the rapid component of the delayed rectifier potassium current, IKr, which is critical for repolarization of cardiac action potentials. A reduction in hERG currents from adverse drug effects can lead to long QT interval syndromes. These syndromes are characterized by action potential prolongation, lengthening of the QT interval on surface EKG, and an increased risk for “torsade de pointes” arrhythmias and sudden death. The MDCK-MDR1 Permeability Assay was also performed. MDCK-MDR1 refers to the ability of a compound to permeate across membranes of MDCK-MDR1 (Madin Darby canine kidney [MDCK] cells with the MDR1 gene [ABCB1], the gene encoding for the efflux protein, P-glycoprotein (P-gp)) in vitro. Assessing transport in both directions (apical to basolateral and basolateral to apical) across the cell monolayers enables an efflux ratio to be determined. […] This provides a prediction of blood brain barrier (BBB) penetration potential/permeability and efflux ratio. Effect in CACO-2 (Colon Adenocarcinoma cells) as a permeability assay and on cytochrome P450 (CYP 450) were also determined. CYP enzymes catalyze oxidative biotransformation (phase 1 metabolism) of most drugs. CYP enzymes, bind to membranes in a cell (cyto) and contain a heme pigment (chrome and P) that absorbs light at a wavelength of 450 nm when exposed to carbon monoxide. Metabolism of a drug by CYP enzymes is a major source of variability in drug effect. These were measured by Chem Partners. The relative effect on HFF and parasite enzymes also were compared.

Data set [3] in a line: Metabolic stability in mouse liver microsomes. The settings on record: for half-life: mouse, liver microsomes. The protocol: as §1
In vitro absorption, distribution, metabolism, excretion, and toxicity (ADMET) analyses of the THQ compounds were outsourced to ChemPartner Shanghai Ltd. ELQ-271 (synthesized in-house) was tested as a comparison.
On the technique in general: Microsomes from liver hold many membrane-bound enzymes, among them those of drug oxidation.

In a further data set the test system is HepG2 cells. The data set is described as follows: Cytotoxicity with HepG2 cells. In kind it is cell-based. The settings on record: Homo sapiens. As to the method:
Toxicity studies also were performed with HepG2 cells (human liver cancer immortal cell line derived from the liver tissue of a […]) in parallel with the studies of P. falciparum, with inhibitors in vitro, as described in McPhillie et al. ([2016]).

[4] abbreviates: PBS, pH 7.4, aqueous solubility (PBS, pH 7.4), amorphous compounds.
Where [5] appears, read: T1/2 (M), predicted half-life in mouse liver microsomes, Figure 1A, min in Figure 2E for the same values.
Setting [6] is: dose response testing, read-out: HEP G2 IC50.

pIC50: −log10 of the molar value. In brackets after ≈: the same amount, converted by molar mass. Like-named read-outs stand apart in the source and are kept apart here.

Regarding `Cc1[nH]c2c(c(=O)c1-c1ccc(Oc3ccc(OC(F)(F)F)cc3)cc1)CCCC2` [JAG21, 2-Methyl-3-(4-(4-(Trifluoromethoxy)Phenoxy)Phenyl)-5,6,7,8-Tetrahydroquinolin-4-One], the “EGS bradyzoites in treated cultures” value in data set [1] (500 nM) is recorded as “we do not see EGS bradyzoites”. The “number of true cysts and small organisms” value in data set [1] is given as “statistically significant reduction”. Further, the pIC50 is 5.70 in data set [1] (Toxoplasma gondii); 4.75 in the data set on HepG2 cells (setting [6]); < 4.77 in the data set with HepG2 cells (supplement summary, read-out: IC50, human HepG2 cells). Moreover, in data set [1] (Toxoplasma gondii, supplement summary), the IC90 was < 1 µM. Besides, the solubility in data set [2] (setting [4]) worked out at 7 µM (≈ 2.91 µg/mL); in data set [2] (PBS, pH 7.4, solubility of the microcrystalline form, microcrystalline form) it was 3.5 µM (≈ 1.45 µg/mL); in data set [2] (pH 7.4), 7.07 µM (≈ 2.94 µg/mL). The half-life in data set [3] (setting [5]) and in data set [3] (half-life in mouse liver microsomes) was 1.68 h in each case. In addition, the Mouse liver microsomes in data set [3] (stability, Figure 2E) stood at 101.09 min.
With `Cc1[nH]c2c(c(=O)c1-c1ccc(Oc3ccc(Cl)cc3)cc1)CCCC2` [JAG50], the “number of true cysts and small organisms” value in data set [1] was “statistically significant reduction”. Also, the pIC50 in data set [1] (Toxoplasma gondii) was 5.70; in the data set on HepG2 cells (setting [6]), 5.15. The solubility in data set [2] (setting [4]) was 16 µM (≈ 5.85 µg/mL); in data set [2] (pH 7.4) it was 16.4 µM (≈ 6 µg/mL). In data set [3], this molecule gave a Mouse liver microsomes of 68.55 min. In addition, the half-life in data set [3] (setting [5]) is 1.14 h.
